Experimental data as given in PubChem BioAssay (NCI).
Several values for one entry are separate records, joined by “and”; a condition that tells them apart may be missing. Identical values can stand only once.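 Results reflect a 48-hour exposure of cells in 96-well plates to compound at five concentrations. Here, GI50 denotes the concentration required for 50% inhibition of growth. TGI: total growth inhibition.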

Columns and labels:
Experiment in all cases: NCI anticancer screen, dose series, 48 h
[1] = test system: OVCAR-8 ovarian
[2] = test system: SK-MEL-2 melanoma
[3] = test system: SF-295 CNS
[4] = test system: ACHN renal
[5] = test system: SNB-19 CNS
[6] = test system: NCI-H522 lung
[7] = test system: MOLT-4 leukemia
[8] = test system: K-562 leukemia
[9] = test system: SK-MEL-5 melanoma
[10] = test system: NCI-H226 lung

Compound | TGI [1] [µM] | TGI [2] [µM] | TGI [3] [µM] | TGI [4] [µM] | TGI [5] [µM] | TGI [6] [µM] | TGI [7] [µM] | TGI [8] [µM] | TGI [9] | TGI [10] [µM] | GI50 [1] [µM] | GI50 [2] [µM] | GI50 [3] [µM] | GI50 [4] [µM] | GI50 [5] [µM] | GI50 [6] [µM] | GI50 [7] [µM] | GI50 [8] [µM] | GI50 [9] | GI50 [10] [µM]
Cc1ccc(S(=O)(=O)N/N=C(\c2nc3ccc([N+](=O)[O-])cc3[nH]c2=O)C(O)c2ccc([N+](=O)[O-])cc2)cc1 (stereo unspecified) | > 100 | > 100 | > 100 | > 100 | > 100 | > 100 | > 100 | > 100 | > 100 µM | – | – | – | – | – | – | – | – | – | – | –
Cc1ccccc1NC(=O)/C=N/O | > 100 | > 100 | > 100 | > 100 | > 100 | > 100 | > 100 | > 100 | > 100 µM | > 100 | – | – | – | – | – | – | – | – | – | –
CC(C)(C)OP(=O)(OC(C)(C)C)C(O)c1ccc(/C=C(\C#N)C(N)=O)cc1 (stereo unspecified) | > 100 | > 100 | > 100 | > 100 | > 100 | > 100 | > 100 | > 100 | – | > 100 | – | – | – | – | – | – | – | – | – | –
Nc1ccc(-c2cc(C(=O)Nc3nccs3)[nH]c(=S)n2)cc1 | > 100 | > 100 | – | > 100 | > 100 | > 100 | > 100 | > 100 | > 100 µM | > 100 | – | – | – | – | – | – | – | – | – | –
CN(C)CCC(/C=C/c1ccccc1)=N\Nc1ccc(Cl)c(Cl)c1 | 7.8 | 6.31 | 11.2 | 4.49 | 20.2 | 4.41 | 6.63 | 6.03 | 8.96 µM | – | – | – | – | – | – | – | – | – | – | –
O=C1CC(c2c(-c3ccccc3)[nH]c3ccccc23)C(=O)N1c1ccccc1 (stereo unspecified) | > 100 | > 100 | > 100 | > 100 | – | – | > 100 | > 100 | > 100 µM | > 100 | – | – | – | – | – | – | – | – | – | –
O=C1N2Cc3c4ccc5c3CN3C(=O)N6Cc7c(ccc(c7CN1C6(c1ccccc1)C23c1ccccc1)OCCOCCOc1cc(Br)c(Br)cc1OCCOCCO4)OCCOCCOc1cc(Br)c(Br)cc1OCCOCCO5 (stereo unspecified) | > 100 | > 100 | – | > 100 | > 100 | > 100 | > 100 | > 100 | > 100 µM | > 100 | – | – | – | – | – | – | – | – | – | –
O=C1/C=C/[C@@H](O)[C@@H]2C[C@@H](O)C[C@H]2/C=C/CCC[C@H](CCc2ccc3ncccc3c2)O1 | > 47 | 0.654 | > 100 | > 29.7 | > 100 | 0.523 | 1.54 | > 100 | 0.162 µM | – | 0.275 | 0.266 | 0.351 | 0.388 | 0.4 | 0.212 | 0.289 | 0.386 | 0.0567 µM | –
O=c1c2ccccc2[nH]c2c(O)ccc(O)c12 | 35.2 | > 100 | 38.5 | 33.7 | > 100 | 29 | 22.8 | 56.3 | – | 66.4 | – | – | – | – | – | – | – | – | – | –
C/C(=N\NC(=O)C[N+](C)(C)C)c1sc(-c2cccnc2)nc1C | > 100 | > 100 | > 100 | > 100 | – | > 100 | > 100 | > 100 | > 100 µM | > 100 | – | – | – | – | – | – | – | – | – | –
S=c1o[nH]c(-c2ccccc2)c1C=Nc1ccccc1 | > 100 | > 100 | > 100 | > 100 | > 100 | > 100 | > 100 | > 100 | > 100 µM | – | – | – | – | – | – | – | – | – | – | –
CCO/S(=N/S(=O)(=O)c1ccccc1)c1ccccc1[N+](=O)[O-] (stereo unspecified) | > 100 | > 100 | > 100 | – | > 100 | > 100 | > 100 | > 100 | > 100 µM | > 100 | – | – | – | – | – | – | – | – | – | –
C[N+](C)(C)CC1CCC(C[N+](C)(C)C)C1=O (stereo unspecified) | 38 | 36.9 | 35.9 | 3.49 | 33.5 | – | 0.801 | 1.34 | 23.8 µM | 23.3 | 14.3 | – | – | – | – | – | 0.25 | – | – | –
COC(=O)CCC(=O)N1C/C(=C\c2ccccc2)C(=O)/C(=C/c2ccccc2)C1 | 14.6 | – | 5.87 | 3.8 | 14.5 | – | 7.77 | > 100 | 5.44 µM | 13.5 | – | – | – | – | – | – | – | – | – | –
COc1ccc2c3c([nH]c(=O)c2c1C(=O)O)-c1ccccc1CC3 | – | > 100 | > 100 | > 100 | > 100 | > 100 | > 100 | > 100 | > 100 µM | > 100 | – | – | – | – | – | – | – | – | – | –
O=C(O)c1cc2ccccc2c2c3c(ccc12)OCO3 | 717 | 333 | 618 | > 1000 | 849 | – | 513 | > 1000 | 281 µM | 818 | 186 | 166 | 157 | 221 | 152 | – | 192 | 259 | 133 µM | 123
Nc1nonc1-c1nc2ccccc2n1Cc1ccc(F)cc1 | > 100 | – | > 100 | > 100 | > 100 | > 100 | > 100 | > 100 | – | > 100 | > 100 | – | 13.1 | 16 | 14.6 | 4.42 | 5.5 | 4.37 | – | > 100
Nc1ncnc2c1ncn2C1OC(COS(N)(=O)=O)C(O)C1O (stereo unspecified) | 0.00394 | – | – | – | – | 0.0148 | 0.109 | – | 0.00336 µM and 0.0321 µM | 0.00398 | < 0.001 | – | – | – | < 0.001 | – | 0.0219 | – | 0.00177 µM and 0.0175 µM | 0.00203
CC1=CC(C)(c2c[nH]c3ccccc23)CC(C)(C)c2c1[nH]c1ccccc21 (stereo unspecified) | 29.8 | – | 32.6 | 44.5 | 74.7 | – | 27.6 | 53.9 | – | 37.1 | – | – | – | – | – | – | – | – | – | –
O=C1/C(=C/c2ccc3c(c2)OCCO3)CCC/C1=C\c1ccc2c(c1)OCCO2 | 30.6 | – | 57.3 | > 100 | > 100 | 92.3 | > 100 | – | 80 µM | – | – | – | – | – | – | – | – | – | – | –
N#Cc1cnc2cc(OC[C@@H](O)CO)c(NC(=O)C3CCCC3)cc2c1Nc1ccc(OCc2cccc(F)c2)c(Cl)c1 | 3.01 | 1.86 | 12.2 | > 50 | > 50 | 1.34 | 4.69 | – | 17.5 µM | 11.4 | 1.16 | 0.915 | 3.78 | 3.01 | 3.69 | 0.568 | 1.49 | – | 7.72 µM | 3.86
